Reference: patent US20060115863A1, “Inositol phosphate detection assays” (AstraZeneca AB, priority 2002, published 2006)

Experiments:
PDGF receptor = experiment: PDGF receptor-mediated PI hydrolysis in quiescent Swiss 3T3 cells measured with Zr4+-SPA beads; type: cell-based
Procedure: Swiss 3 T 3 cells were maintained in DMEM medium supplemented with 10% heat-inactivated calf serum. For PI hydrolysis assay, the cells were grown in 96-well plates in [^3H]inositol-containing medium for 16-48 hr, then deprived of serum for 24 hr. The cells were stimulated with PDGF-BB for 45-60 min and the inositol phosphate accumulated in the cells was measured by IMAC-SPA in the same way as described for NK1 receptors.
The PDGF receptor belongs to the superfamily of tyrosine kinase-linked growth factor receptors. Stimulation of the PDGF receptor leads to activation of PLC-y through Ras-related GTPase (Ji et al., 1999, Mol. Cell. Biol., 1999. 19:49614970; Wang et al., 1998, Mol. Cell. Biol., 18:590-597; Heldin et al., 1998, Biochim. Biophys. Acta, 1378:F79-113; Stice et al., 1999, Front. Biosci., 4:D72-86).

[1] = target: human neurokinin NK1 receptors (Homo sapiens, UniProt P25103); experiment: NK1-mediated PI hydrolysis measured with Zr4+-SPA beads (IMAC-SPA); type: cell-based
human neurokinin NK1 receptors, sequence (P25103 whole entry): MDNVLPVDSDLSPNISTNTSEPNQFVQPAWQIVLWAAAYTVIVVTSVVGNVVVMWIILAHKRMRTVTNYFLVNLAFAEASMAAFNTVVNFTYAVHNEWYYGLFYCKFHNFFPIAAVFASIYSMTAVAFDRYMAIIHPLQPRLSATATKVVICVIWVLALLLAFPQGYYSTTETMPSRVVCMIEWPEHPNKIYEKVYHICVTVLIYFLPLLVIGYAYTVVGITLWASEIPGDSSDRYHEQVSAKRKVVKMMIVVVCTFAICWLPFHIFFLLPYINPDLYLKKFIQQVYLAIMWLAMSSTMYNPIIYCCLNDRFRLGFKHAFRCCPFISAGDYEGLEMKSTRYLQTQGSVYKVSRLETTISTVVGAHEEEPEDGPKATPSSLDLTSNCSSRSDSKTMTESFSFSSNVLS
Procedure: CHO cells stably expressing human neurokiuin NK1 receptors were maintained in 5% CO2 and at 37° C. in Ham's F12 medium supplemented with 10% fetal bovine serum (FBS) and 0.5 mg/ml G418. For experiments, the cells were plated onto 96-well plates in inositol-free DMEM medium containing 10% FBS and 5 μCi/ml [3 H]inositol (0.5 μCi/well). After 16-48 hr incubation, the medium was removed and the cells were incubated for 15 min with or without NK1 antagonist in phosphate-free lithium-containing Hanks solution (PFLH) (composition: 20 mM HEPES, pH 7.4, 1.25 mM MgCl2, 1.25 mM CaCl2, 5 mM KCl, 125 mM NaCl, 10 mM LiCl and 10 mM glucose). […] At the end of the incubation, the agonist solution was removed and 100 μl ice-cold 20 mM formic acid solution (pH3.0) containing 2 mM myo-inositol was added in each well to release inositol phosphates from the cells. After incubation at 4° C. for over 10 min, the samples were transferred to a white opaque plate, and 100 μl of metal ion loaded IMAC-SPA beads added to each well. Alternatively, IMAC-SPA beads could be added directly to the cell plate to eliminate the sample transfer step. The amount of [^3H] inositol phosphates generated in the cells was then determined by measurement of the radioactivity on the SPA beads on TopCount® NXT®. […]

PDGF-BB: Human recombinant platelet-derived growth factor (PDGF-BB) from Calbiochem
EC50 of stimulation of PI hydrolysis (PDGF receptor): 3.0 ng/mL
maximal increase in inositol phosphate production (PDGF receptor): 5 fold

FC(F)(F)c1cc(CO[C@H]2CCCN[C@H]2c2ccccc2)cc(C(F)(F)F)c1 [L-733060]
inhibition of PI hydrolysis induced by Substance P (mode) ([1]; NK1 CHO cells, shifted the concentration-response curve to the right): inhibited competitively

Substance P
increase in signal ([3H]inositol phosphate) over the control ([1]; 0.1 μM, CHO cells expressing NK1 receptor, Zr4+-loaded SPA beads, saline control): 12 fold
